In patent US20210236487A1, “Methods and Compositions for Treatment of Cancer with PARP Inhibitors” (Rush University Medical Center, priority 2018, published 2021):
“And” between values parts separate entries of the source, which are not always exact repeats. Identical values can stand only once. “Also recorded” adds a separate entry of the source.

Key:
[1] = Hellman, 1964; cited from earlier work
[2] = cited from earlier work
[3] = Serum folic acid level in olaparib-treated cancer patients (chart review / case series); assay type: in vivo, human; conditions: for Folic Acid Level: on olaparib, reference range 7.0-31.4 ng/mL
Protocol: (§1) A formal assessment of folic acid level along with a chart review of olaparib treated ovarian cancer patients was conducted to determine the frequency of severe folic acid deficiency in this population and the impact of replacement therapy on outcome. This was an IRB-approved study performed at Rush University Medical Center from Dec. 1, 2016 to Apr. 3, 2017. Data collection was conducted in accordance with good clinical practice guidelines and the provisions of declaration of Helsinki. Data collected included cancer history, date of initiation of olaparib, duration of olaparib use, CBC data, peripheral smear/RBC morphology data, Vitamin B12, folic acid levels, iron studies with ferritin, reticulocyte count, LDH levels, haptoglobin levels, TSH levels, any treatment administered for hematological toxicities including nutritional supplementation or blood product transfusion, dose reductions or cessation of olaparib use and indication for such intervention were collected for all patients.

[4] = tested on: gBRCA-mutated advanced ovarian cancer; conditions: Phase II trials, cited from earlier work
[5] = tested on: ovarian cancer; test: Treatment outcome on olaparib (case series); assay type: in vivo, human
Protocol: as §1

[6] = Hematologic toxicity (Hgb, MCV, other abnormalities, transfusion, dose reduction) in olaparib-treated patients (chart review / case series); assay type: in vivo, human; conditions: for Transfusion requirement: secondary to anemia noted after administration of Olaparib; for Transfusion required: secondary to anemia noted while patient receiving olaparib
Protocol: as §1

[7] = Response to folic acid supplementation in patients on olaparib; assay type: in vivo, human; conditions: for Response to folic acid supplementation: on olaparib
Protocol: as §1

[8] = Table 1, patient/age c1 A/61, c2 B/78, c3 C/63, c4 D/57
[9] = Table 2a, patient/age c1 A/61, c2 B/78, c3 C/63, c4 D/57
[10] = Table 2b, patient/age c1 E, c2 F, c3 G, c4 H
[11] = Table 3a, patient/age c1 A/62, c2 B/78, c3 C/63, c4 D/57
[12] = Table 3b, patient/age c1 E, c2 F, c3 G, c4 H

CN(Cc1cnc2nc(N)nc(N)c2n1)c1ccc(C(=O)N[C@@H](CCC(=O)O)C(=O)O)cc1 [Methotrexate]
serum folate level [1]: variably decreased

O=C(c1cc(Cc2n[nH]c(=O)c3ccccc23)ccc1F)N1CCN(C(=O)C2CC2)CC1 [olaparib, 4-[(3-[(4-cyclopropylcarbonyl)piperazin-4-yl]carbonyl)-4-fluorophenyl]methyl(2H)-phthalazin-1-one]
myelodysplastic syndrome/Acute Myeloid Leukemia, olaparib-treated patients ([2]; Olaparib PI): 2%
adverse reactions leading to discontinuation of olaparib, patients ([2]; clinical trials (Olaparib PI)): 9%
adverse reactions leading to dose interruptions, patients ([2]; clinical trials (Olaparib PI)): 26%
adverse reactions leading to dose reductions, patients ([2]; clinical trials (Olaparib PI)): 15%
folic acid level (severe folic acid deficiency) in three additional patients ([3]; 3 other women, after taking olaparib for at least four weeks): < 1.6 ng/mL
folate level ([3]; Case report, Patient A on olaparib, Normal: 7-31.4 ng/mL): < 1.6 ng/mL
folic acid level (severe folic acid deficiency) ([3]; Patient B on olaparib): < 1.6 ng/mL
folic acid level (severe folic acid deficiency) ([3]; Patient C, approximately 4 weeks after starting olaparib): < 1.6 ng/mL
folic acid level (severely low) ([3]; Patient D on olaparib): 1.6 ng/mL
Folic Acid Level [3, 8]: <1.6 ng/mL and 1.6 ng/mL
Folic Acid Level [3, 9]: <1.6 ng/mL and 1.6 ng/mL
Folic Acid Level [3, 10]: 4.9 ng/mL and 5.2 ng/mL and 3.7 ng/mL and 6.2 ng/mL
folate level after initiation of olaparib ([3]; available laboratory data of the case series): drops precipitously within weeks
progression-free survival ([4]; advanced ovarian cancer): significantly prolonged
overall response rate (ORR) ([4]; gBRCA-mutated advanced ovarian cancer, three or more previous lines of chemotherapy): 34%
Treatment outcome: discontinued because of [5, 11]: progression; also recorded: refractory anemia; also recorded: diarrhea
Treatment outcome: treatment stopped after ([5]; Table 3b, patient E/73): after 20 days
Treatment outcome: discontinued because of / status [5, 12]: months; ongoing; also recorded: progression
patients who developed transfusion-dependent anemia ([6]; 4 cases, in the course of treatment with olaparib): Three of the four
hgb (severe anemia) ([6]; Case report, Patient A, after 5 weeks of olaparib therapy, requiring blood transfusion): 6.6 g/dL
MCV (macrocytic anemia) ([6]; Case report, Patient A, at the time of Hematology evaluation): 110.7 fL
Hgb (macrocytic anemia) ([6]; Case report, Patient A, at the time of Hematology evaluation, olaparib reduced to 100 mg BID): 9.0 g/dL
Hgb (acute decrease) ([6]; Patient B, five weeks after starting olaparib, from 8 g/dL, requiring blood transfusion): 6.8 g/dL
Hgb (further decrease) ([6]; Patient C on olaparib, two weeks after start of folic acid 1 mg daily, requiring blood transfusion): 6.3 g/dL
Hgb (drop in baseline) ([6]; Patient C, approximately 4 weeks after starting olaparib, from 14 g/dL): 10 g/dL
Hgb (mild anemia) ([6]; Patient D, while on olaparib for 6 months): 9 to 10 g/dL
Dose Reduction or Delay of Olaparib/Cause ([6]; Table 1, patient/age c1 A/61, c2 B/78, c3 C/63, c4 D/57, cause of dose change): anemia
Dose Reduction or Delay of Olaparib/Cause ([6]; Table 1, patient/age c1 A/61, c2 B/78, c3 C/63, c4 D/57, dose reduced or delayed): Yes/ and No
Other Hematologic Abnormalities ([6]; Table 1, patient/age c1 A/61, c2 B/78, c3 C/63, c4 D/57, noted at time of initial Hematology assessment): Leukopenia and None and Thrombo-
Hgb Nadir ([6]; Table 1, patient/age c1 A/61, c2 B/78, c3 C/63, c4 D/57, on olaparib, reference range 12.0-16.0 g/dL): 6.6 g⁻¹ dL⁻¹ and 6.3 g⁻¹ dL⁻¹ and 8.8 g⁻¹ dL⁻¹
MCV Nadir ([6]; Table 1, patient/age c1 A/61, c2 B/78, c3 C/63, c4 D/57, on olaparib, reference range 82.0-103.0 fL): 110.7 fL and 102.0 fL and 91.6* fL and 98.1 fL
Transfusion requirement [6, 8]: Yes and No
Dose Reduction or Delay of Olaparib/Cause [6, 9]: Yes, anemia and Yes, and No and anemia
Other Hematologic Abnormalities ([6]; Table 2a, patient/age c1 A/61, c2 B/78, c3 C/63, c4 D/57, noted at time of initial Hematology assessment): Leukopenia; and None and Thrombo-
Hgb Nadir ([6]; Table 2a, patient/age c1 A/61, c2 B/78, c3 C/63, c4 D/57, on olaparib, reference range 12.0-16.0 g/dL): 6.6 g⁻¹ dL⁻¹ and 6.3 g⁻¹ dL⁻¹ and 8.8 g⁻¹ dL⁻¹
MCV Nadir ([6]; Table 2a, patient/age c1 A/61, c2 B/78, c3 C/63, c4 D/57, on olaparib, reference range 82.0-103.0 fL): 110.7 fL and 102.0 fL and 91.6* fL and 98.1 fL
Transfusion requirement [6, 9]: Yes and No
Dose Reduction or Delay of Olaparib/Cause [6, 10]: No and Yes, neutropenia, and Yes, folic acid and anemia, fatigue, and dyspnea
Other Hematologic Abnormalities ([6]; Table 2b, patient/age c1 E, c2 F, c3 G, c4 H, noted at time of initial Hematology assessment): Leukopenia;; also recorded: Leukopenia; also recorded: Thrombocytopenia
MCV Nadir ([6]; Table 2b, patient/age c1 E, c2 F, c3 G, c4 H, on olaparib, reference range 82.0-103.0 fL): 112.0 fL and 115.8 fL and 93.2 fL and 98.9 fL
Transfusion requirement [6, 10]: No and Yes
Dose Reduction or Delay of Olaparib/Cause [6, 11]: Yes/anemia and No
Hgb Nadir ([6]; Table 3a, patient/age c1 A/62, c2 B/78, c3 C/63, c4 D/57, lowest value documented while receiving olaparib, reference range 12.0 to 16.0 g/dL): 6.6 g⁻¹ dL⁻¹ and 6.3 g⁻¹ dL⁻¹ and 8.8 g⁻¹ dL⁻¹
Other Hematologic Abnormalities ([6]; Table 3a, patient/age c1 A/62, c2 B/78, c3 C/63, c4 D/57, noted at time of initial hematologic assessment): Thrombo- and Leukopenia; and None
Transfusion required [6, 11]: Yes and No
MCV Nadir ([6]; Table 3a, patient/age c1 A/62, c2 B/78, c3 C/63, c4 D/57, while receiving olaparib, reference range 82.0 to 103.0 fL): 110.7 fL and 102.0 fL and 91.6 fL and 98.1 fL
Hgb Nadir ([6]; Table 3b, patient/age c1 E, c2 F (200 mg once per day), c3 G, c4 H (metastatic breast cancer), lowest value while receiving olaparib, reference range 12.0 to 16.0 g/dL): 10.8 g⁻¹ dL⁻¹ and 8.1 g⁻¹ dL⁻¹ and 12.2 g⁻¹ dL⁻¹ and 10.4 g⁻¹ dL⁻¹
Dose Reduction or Delay of Olaparib/Cause ([6]; Table 3b, patient/age c1 E, c2 F (reduced dose 200 mg once per day from the onset), c3 G/52, c4 H/35): No and No^k and Yes/rash
Other Hematologic Abnormalities ([6]; Table 3b, patient/age c1 E, c2 F, c3 G, c4 H, noted at time of initial hematologic assessment): Leukopenia; and None and Thrombo-
Transfusion required [6, 12]: No
MCV Nadir ([6]; Table 3b, patient/age c1 E, c2 F, c3 G, c4 H, while receiving olaparib, reference range 82.0 to 103.0 fL): 105.6 fL and 103.1 fL and 93.5 fL and 85.8 fL

Nc1nc2ncc(CNc3ccc(C(=O)N[C@@H](CCC(=O)O)C(=O)O)cc3)nc2c(=O)[nH]1 [folic acid]
anemia and macrocytosis after folic acid supplementation ([7]; Patient A on olaparib, oral folic acid 1 mg daily): improved
Hgb after folic acid supplementation ([7]; Patient B, two weeks after starting folic acid 1 mg daily, no longer required blood transfusions): markedly improved
folic acid level after supplementation ([7]; Patient C on olaparib, two weeks of folic acid 1 mg daily, minimally increased from prior value): 2.9 ng/mL
folic acid level after supplementation ([7]; Patient C, folic acid supplementation increased to 2 mg TID): normalized
Hgb stabilized after supplementation ([7]; Patient C, folic acid supplementation increased to 2 mg TID, olaparib briefly held): around 9 g/dL
folic acid level after supplementation ([7]; Patient D on olaparib, folic acid 1 mg daily): subsequent improvement
Response to folic acid supplementation ([7]; Table 1, patient/age c1 A/61, c2 B/78, c3 C/63, c4 D/57, improvement of folic acid level to within the reference range (≥7.0 ng/mL)): Yes
Response to folic acid supplementation ([7]; Table 2a, patient/age c1 A/61, c2 B/78, c3 C/63, c4 D/57, improvement of folic acid level to within the reference range (≥7.0 ng/mL)): Yes and No
Response to folic acid supplementation ([7]; Table 2b, patient/age c1 E, c2 F, c3 G, c4 H, improvement of folic acid level to within the reference range (≥7.0 ng/mL)): Yes
Response to folic acid supplementation ([7]; Table 3a, patient/age c1 A/62, c2 B/78, c3 C/63, c4 D/57, improvement of folic acid level to within reference range): Yes
Response to folic acid supplementation ([7]; Table 3b, patient/age c2, improvement of folic acid level to within reference range): Yes
correction of olaparib-induced folic acid deficiency ([7]; folic acid supplementation at variable doses): can correct
